Experimental data as given in patent publication US20210121527A1, “METHODS OF TREATING MINIMAL RESIDUAL CANCER” (ICAHN SCHOOL OF MEDICINE AT MOUNT SINAI, priority 2018, published 2021).

How the values were obtained:
[1] = test system: MMTV-HER2 mammary glands; experiment: Mammary gland whole mount and histology of early lesions in MMTV-HER2 mice; assay type: in vivo, mouse; details: 50 mpk, two weeks
Method: (§1) Mice, tumor growth, and tissue processing: The FVB/N-Tg (MMTVneu) mouse strain was obtained from Jackson Laboratories (Sacramento, Calif.). […] Before being used in any experiment, females underwent one round of pregnancy and at least two weeks of no lactation after weaning. Females between 24-32 weeks of age were injected intraperitoneally with vehicle (90% corn oil, 10% ethanol) or LY4 (50 mpk) daily, for two weeks. For the combination treatment, females 24-32 weeks of age were treated daily by oral gavage with Abemaciclib (50 mpk) for 4 weeks before starting the treatment described earlier with LY4. Tumor volumes were measured using the formula (Dxd^2)/2, where D is the longest and d is the shortest diameter. For CTC count, animals were anesthetized and whole blood was extracted by cardiac puncture. Mammary glands, lungs, and tumors were collected and fixed in 10% buffered formalin overnight before paraffin embedding. The bone marrow from the two lower limbs was flushed with a 26 G needle and further processed by Ficoll density gradient centrifugation. For CTC as well as for DTC detection in bone marrow, tissues were depleted of mature hematopoietic cells by anti-mouse antibody-labeled magnetic bead separation (Miltenyi Biotec, San Diego, Calif.) before fixation in formalin for 20 minutes at 4° C.
Mammary gland whole mount staining. Mammary glands fixed in 10% buffered formalin were incubated in Carmine Alum stain (Carmine 0.2%, Aluminum potassium sulfate 0.5%) (Sigma, St. Louis, Mo.) for 2 days. Then, they were dehydrated and transferred to methyl salicylate solution before imaging using a stereomicroscope.
The scoring for P-HER2 levels is explained in FIG. 10A. For the scoring of CK8/18 and SMA in mammary gland ducts, 20 low magnification fields were evaluated per animal for the expression of CK8/18 as negative (0), low (1), or high (2) and the same for SMA and the sum of the two scores was considered as the final score (from 0 to 4).

[2] = test system: MCF10A-HER2, ZR75.1, SKBR3; experiment: 3D acini cultures in Matrigel, cleaved caspase-3 and P-histone H3; assay type: cell-based, human; details: 2 μM, 10 days
Method: Reagents, cell culture, and treatments: EGF was obtained from PeproTech (Rocky Hill, N.J.) and used at 100 ng/ml. Thapsigargin was from Sigma (St. Louis, Mo.) and used at 2 nM. The ZR75.1-H2B-Dendra2 cell line was generated by stable transfection of the H2B-Dendra2 plasmid (Gurskaya et al., “Engineering of a Monomeric Green-to-Red Photoactivatable Fluorescent Protein Induced by Blue Light,” Nat. Biotechnol. 24:461-465 (2006), which is hereby incorporated by reference in its entirety). For 3D cultures, MCF10A-HER2, SKBR3, and ZR75.1-H2B-Dendra2 cells were plated in growth factor-reduced Matrigel (Corning, Corning, N.Y.) and grown as described previously (Avivar-Valderas et al., “Regulation of Autophagy during ECM Detachment is Linked to a Selective Inhibition of mTORC1 by PERK,” Oncogene 32(41):4932-40 (2013), which is hereby incorporated by reference in its entirety). When referring to “low density,” 3,500 cells/8-well were seeded, and for “high density” 20,000 cells/8-well. Treatments with vehicle (DMSO) or LY4 (2 μM) were replaced every 24 hours for 2D and every 48 hours for 3D cultures. […]

[3] = molecular target: T1, PERK (Mus musculus, UniProt Q9Z2B5); experiment: IHC of P-PERK and P-eIF2α in tissues of treated MMTV-HER2 mice; assay type: in vivo; details: 50 mpk i.p. daily, two weeks
T1 construct: from tissue; host or cells: mammary gland and pancreas sections of MMTV-HER2 (FVB/N-Tg(MMTVneu)) female mice
Method: as §1, with “C. […]” for “C.”

[4] = Tolerability in MMTV-HER2 female mice; assay type: in vivo, mouse
Method: as §1

[5] = test system: HER2^+ metastases and DCCs; experiment: Metastasis, CTC and DCC quantification in MMTV-HER2 mice; assay type: in vivo, mouse; details: 50 mpk i.p. daily, two weeks
Method: as §1
IHC and IF: IHC and IF from paraffin-embedded sections was performed as previously described (Avivar-Valderas et al., “Regulation of Autophagy during ECM Detachment is Linked to a Selective Inhibition of mTORC1 by PERK,” Oncogene 32(41):4932-40 (2013), which is hereby incorporated by reference in its entirety). Briefly, slides were dewaxed and serially rehydrated. Heat-induced antigen retrieval was performed in either citrate buffer (10 mM, pH 6), EDTA buffer (1 mM, pH 8), or Tris/EDTA (pH9). Slides were further permeabilized in 0.1% Triton™-X100, blocked and incubated with primary antibody overnight at 4° C. at 1:50-1:200 dilution. For IHC, an additional step of endogenous peroxidase and avidin/biotin quenching was performed before primary antibody incubation. […] Next, slides were incubated in secondary antibodies (Life Technologies, Norwalk, Conn.) and mounted. For IHC, sections were processed using VectaStain ABC Elite kit (Vector Laboratories, Bulingame, Calif.) and DAB Substrate kit for peroxidase labelling (Vector Laboratories) and mounted in VectaMount medium (Vector laboratories). For IF, sections were mounted in ProLong Gold Antifade aqueous medium (Thermo Fisher, Waltham, Mass.).
In the case of immunocytofluorescence, cytospins of fixed cells (100,000-200,000 cells/cytospin were prepared by cyto-centrifugation at 500 rpm for 3 minutes on poly-prep slides, and the staining protocol was performed as explained below from the permeabilization onward. For the staining of 3D cultures, acini were fixed in 4% PFA for 20 minutes at 4° C., permeabilized with 0.5% Triton™-X100 in PBS for 20 minutes at room temperature, washed in PBS-glycine, and then blocked with 10% normal goat serum for 1 hour at 37° C., before performing immunofluorescence staining.

T1 sequence (Q9Z2B5 29-1114): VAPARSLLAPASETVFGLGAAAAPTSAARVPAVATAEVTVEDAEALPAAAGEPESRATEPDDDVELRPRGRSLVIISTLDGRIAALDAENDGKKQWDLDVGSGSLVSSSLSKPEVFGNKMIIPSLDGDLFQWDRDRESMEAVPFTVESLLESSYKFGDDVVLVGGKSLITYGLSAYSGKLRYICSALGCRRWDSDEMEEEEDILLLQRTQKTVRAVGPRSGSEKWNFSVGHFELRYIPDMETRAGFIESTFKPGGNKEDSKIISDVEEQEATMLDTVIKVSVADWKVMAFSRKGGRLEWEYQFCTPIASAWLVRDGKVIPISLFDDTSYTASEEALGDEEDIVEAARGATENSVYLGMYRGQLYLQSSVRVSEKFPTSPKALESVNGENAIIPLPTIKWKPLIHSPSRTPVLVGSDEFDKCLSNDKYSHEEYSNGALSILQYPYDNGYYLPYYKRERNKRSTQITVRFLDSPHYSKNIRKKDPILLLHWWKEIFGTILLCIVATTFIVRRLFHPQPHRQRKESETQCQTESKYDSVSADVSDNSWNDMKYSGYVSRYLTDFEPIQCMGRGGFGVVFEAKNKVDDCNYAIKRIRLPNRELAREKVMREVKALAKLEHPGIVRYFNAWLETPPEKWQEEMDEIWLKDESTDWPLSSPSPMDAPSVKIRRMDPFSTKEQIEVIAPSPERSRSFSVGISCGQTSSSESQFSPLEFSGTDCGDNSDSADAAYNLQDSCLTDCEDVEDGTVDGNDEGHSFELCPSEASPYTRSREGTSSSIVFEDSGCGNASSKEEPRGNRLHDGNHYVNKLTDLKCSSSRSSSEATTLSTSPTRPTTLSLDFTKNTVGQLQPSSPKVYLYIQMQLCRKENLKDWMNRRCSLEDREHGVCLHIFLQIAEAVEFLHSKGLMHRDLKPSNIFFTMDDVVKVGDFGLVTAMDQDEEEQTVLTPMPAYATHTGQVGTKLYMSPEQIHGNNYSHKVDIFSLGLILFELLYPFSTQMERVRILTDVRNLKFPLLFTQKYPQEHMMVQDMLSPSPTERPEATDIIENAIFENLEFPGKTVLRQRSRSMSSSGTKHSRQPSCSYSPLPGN

Cc1cc(NC(=O)[C@H](O)c2cc(F)cc(F)c2)ccc1-c1cnc(N)c(C(=O)NC(C)C)c1 [LY4, 2-amino-5-[4-[[(2R)-2-(3,5-difluorophenyl)-2-hydroxy-acetyl]amino]-2-methyl-phenyl]-N-isopropyl-pyridine-3-carboxamide]
cytokeratin 8/18 expression in the luminal layer of mammary ducts [1]: increased expression of cytokeratin 8/18 in the luminal layer
number of occluded hyperplasias and DCIS-like lesions [1]: reduced to less than half of that in vehicle-treated animals
hollow lumen mammary gland ducts, share of structures ([1]; around 20% in control females): more than 60%
apoptosis (cleaved caspase-3) in 3D acini [2]: significantly increased the levels of apoptosis (cleaved caspase-3)
proliferation in 3D acini (phospho-histone H3) [2]: a significant change in the levels of proliferation as detected by phospho-histone H3 levels was not observed
P-PERK and P-eIF2α levels in mammary gland ducts and pancreatic tissue [3]: significant decrease in P-PERK and P-eIF2α levels
bone marrow cell homeostasis and peripheral blood white cells (total cell counts) ([4]; 50 mpk i.p. daily, two weeks): no effect on total cell counts
tolerability, body weight ([4]; 50 mpk i.p. daily, two weeks): well tolerated, with no significant changes in body weight
glucose levels, blood cell counts, drinking and feeding behavior ([4]; doses of LY4 used, non-tumor or cancer bearing mice): did not significantly affect glucose levels, bone marrow, or peripheral blood cell counts, drinking and feeding behavior
HER2^+ circulating tumor cells in blood [5]: no significant difference between vehicle and LY4-treated animals
area of macro-metastases [5]: without affecting the area of these metastases
number and incidence of lung macro-metastases (>100 cells) [5]: reduced the number and the incidence of macro-metastases
number of DCCs in bone marrow [5]: significantly decreased the number of DCCs found in bone marrow
number of P-Rb negative single DCCs in lung sections [5]: strongly reduced the number of non-proliferating (P-Rb negative) single DCCs
number of P-Rb positive solitary DTCs in lung [5]: without affecting the number of P-Rb positive solitary DTCs
number of lung micro-metastases (2-100 cells) [5]: significant decrease in the number of micro-metastases
